Source: US8877748B2, “Heterocyclic fused anthraquinone derivatives, manufacturing method and pharmaceutical composition using thereof” (National Defense Medical Center, priority 2012, dated 2014)
Where two headings read alike, the source gives them in different places.

Key:
M14 = test: NCI one-dose screening, melanoma M14; format: cell-based, human; conditions: 10 μM
OVCAR-4 = test: NCI one-dose screening, ovarian cancer OVCAR-4; format: cell-based, human; conditions: 10 μM
NCI-H522 = test: NCI one-dose screening, non-small cell lung cancer NCI-H522; format: cell-based, human; conditions: 10 μM
NCI-H23 = test: NCI one-dose screening, non-small cell lung cancer NCI-H23; format: cell-based, human; conditions: 10 μM
MOLT-4 = test: NCI one-dose screening, leukemia MOLT-4; format: cell-based, human; conditions: 10 μM
DU145 = test: NCI one-dose screening, prostate cancer DU145; format: cell-based, human; conditions: 10 μM
MCF7 = test: NCI one-dose screening, breast cancer MCF7; format: cell-based, human; conditions: 10 μM
K562cell line = test: NCI one-dose screening, leukemia K562; format: cell-based, human; conditions: 10 μM
UO-31 = test: NCI one-dose screening, renal cancer UO-31; format: cell-based, human; conditions: 10 μM
HS 578-T = test: NCI one-dose screening, breast cancer HS 578-T; format: cell-based, human; conditions: 10 μM; Breast cancer
human tumor cell lines = test: NCI one-dose screening, Mean / Delta / Range of growth percent over all tested cell lines; format: cell-based; conditions: 10 μM
RXF, 393 = test: NCI one-dose screening, renal cancer RXF, 393; format: cell-based, human; conditions: 10 μM
SK-MEL-2 = test: NCI one-dose screening, melanoma SK-MEL-2; format: cell-based, human; conditions: 10 μM
T-47D = test: NCI one-dose screening, breast cancer T-47D; format: cell-based, human; conditions: 10 μM
HOP-62 = test: NCI one-dose screening, non-small cell lung cancer HOP-62; format: cell-based, human; conditions: 10 μM
[1] = system: PC-3 prostate cancer cell line; test: SRB assay cell viability, PC-3 prostate cancer cell line; format: cell-based, human; conditions: Homo sapiens
HCC-2998 = test: NCI one-dose screening, colon cancer HCC-2998; format: cell-based, human; conditions: 10 μM
PC-3 = test: NCI one-dose screening, prostate cancer PC-3; format: cell-based, human; conditions: 10 μM
TK-10 = test: NCI one-dose screening, renal cancer TK-10; format: cell-based, human; conditions: 10 μM
OVCAR-3 = test: NCI one-dose screening, ovarian cancer OVCAR-3; format: cell-based, human; conditions: 10 μM
CCRF-CEM = test: NCI screening platform one-dose single concentration screening, leukemia CCRF-CEM; format: cell-based, human; conditions: 10 μM
SK-MEL-5 = test: NCI one-dose screening, melanoma SK-MEL-5; format: cell-based, human; conditions: 10 μM
SNB-19 = test: NCI one-dose screening, CNS cancer SNB-19; format: cell-based, human; conditions: 10 μM
SNB-75 = test: NCI one-dose screening, CNS cancer SNB-75; format: cell-based, human; conditions: 10 μM
NCI-H322M = test: NCI one-dose screening, non-small cell lung cancer NCI-H322M; format: cell-based, human; conditions: 10 μM; Non-small cell lung cancer
SK-OV-3 = test: NCI one-dose screening, ovarian cancer SK-OV-3; format: cell-based, human; conditions: 10 μM
LOX IMVI = test: NCI one-dose screening, melanoma LOX IMVI; format: cell-based, human; conditions: 10 μM
[2] = NCI one-dose screening, renal cancer A489; format: cell-based, human; conditions: 10 μM
UACC-257 = test: NCI one-dose screening, melanoma UACC-257; format: cell-based, human; conditions: 10 μM
PRMI-8226 cell line = test: NCI one-dose screening, leukemia PRMI-8226; format: cell-based, human; conditions: 10 μM
BT-549 = test: NCI one-dose screening, breast cancer BT-549; format: cell-based, human; conditions: 10 μM
786-O = test: NCI one-dose screening, renal cancer 786-O; format: cell-based, human; conditions: 10 μM
SF-268 = test: NCI one-dose screening, CNS cancer SF-268; format: cell-based, human; conditions: 10 μM
UACC-62 = test: NCI one-dose screening, melanoma UACC-62; format: cell-based, human; conditions: 10 μM
MDA, -MB-435 = test: NCI one-dose screening, breast cancer MDA, -MB-435; format: cell-based, human; conditions: 10 μM; listed under Melanoma
SF-295 = test: NCI one-dose screening, CNS cancer SF-295; format: cell-based, human; conditions: 10 μM
NCI-H460 = test: NCI one-dose screening, non-small cell lung cancer NCI-H460; format: cell-based, human; conditions: 10 μM
HL-60, TB = test: NCI one-dose screening, leukemia HL-60, TB; format: cell-based, human; conditions: 10 μM
SR = test: NCI one-dose screening, leukemia SR; format: cell-based, human; conditions: 10 μM
A549/ATCC = test: NCI one-dose screening, non-small cell lung cancer A549/ATCC; format: cell-based, human; conditions: 10 μM
NCl/ADR-RES = test: NCI one-dose screening, breast cancer NCl/ADR-RES; format: cell-based, human; conditions: 10 μM; listed under Ovarian cancer
OVCAR-8 = test: NCI one-dose screening, ovarian cancer OVCAR-8; format: cell-based, human; conditions: 10 μM
HCT-15 = test: NCI one-dose screening, colon cancer HCT-15; format: cell-based, human; conditions: 10 μM
COLO 205 = test: NCI one-dose screening, colon cancer COLO 205; format: cell-based, human; conditions: 10 μM
MALME-3M = test: NCI one-dose screening, melanoma MALME-3M; format: cell-based, human; conditions: 10 μM
MDA-MB-231/ATCC = test: NCI one-dose screening, breast cancer MDA-MB-231/ATCC; format: cell-based, human; conditions: 10 μM
IGROV1 = test: NCI one-dose screening, ovarian cancer IGROV1; format: cell-based, human; conditions: 10 μM
HOP-92 = test: NCI one-dose screening, non-small cell lung cancer HOP-92; format: cell-based, human; conditions: 10 μM
SF-539 = test: NCI one-dose screening, CNS cancer SF-539; format: cell-based, human; conditions: 10 μM
SN12C = test: NCI one-dose screening, renal cancer SN12C; format: cell-based, human; conditions: 10 μM
SK-MEL-28 = test: NCI one-dose screening, melanoma SK-MEL-28; format: cell-based, human; conditions: 10 μM
CAKI-1 = test: NCI one-dose screening, renal cancer CAKI-1; format: cell-based, human; conditions: 10 μM
U251 = test: NCI one-dose screening, CNS cancer U251; format: cell-based, human; conditions: 10 μM
MDA-MB-468 = test: NCI one-dose screening, breast cancer MDA-MB-468; format: cell-based, human; conditions: 10 μM
HCT-116 = test: NCI one-dose screening, colon cancer HCT-116; format: cell-based, human; conditions: 10 μM
KM12 = test: NCI one-dose screening, colon cancer KM12; format: cell-based, human; conditions: 10 μM

O=C1c2ccccc2C(=O)c2c1cc(SCc1ccccc1)c1nsnc21 [C21, 4-(benzyl-thio)anthra[2,1-c][1,2,5] thiadiazol-6,11-dione]
Growth Percent M14 (M14): 86.54%
Growth Percent OVCAR-4 (OVCAR-4): −68.15%
Growth Percent NCI-H522 (NCI-H522): 92.01%
Growth Percent NCI-H23 (NCI-H23): 101.09%
Growth Percent MOLT-4 (MOLT-4): −20.97%
Growth Percent DU145 (DU145): 82.23%
Growth Percent MCF7 (MCF7): 56.44%
Growth Percent K562 (K562cell line): 10.51%
Growth Percent UO-31 (UO-31): 73.75%
Growth Percent HS 578T (HS 578-T): 59.96%
Growth Percent Delta (human tumor cell lines; delta over all cell lines): 136.92%
Growth Percent Mean (human tumor cell lines; mean over all cell lines): 51.63%
Growth Percent Range (human tumor cell lines; range over all cell lines): 215.19%
Growth Percent RXF 393 (RXF, 393): 68.12%
Growth Percent SK-MEL-2 (SK-MEL-2): −3.95%
Growth Percent T-47D (T-47D): −46.11%
Growth Percent HOP-62 (HOP-62): 94.98%
IC50 ([1]; PC-3 prostate cancer cell line, Table II prints no unit, μM printed, read-out: SRB assay: 50% inhibition of cancer cell proliferation of sample concentration (IC50) of PC-3 prostate cancer cell line): > 15 µM
IC50 ([1]; PC-3 prostate cancer cells, read-out: IC50 in PC-3 prostate cancer cells (cell viability analysis)): > 15 µM
Growth Percent HCC-2998 (HCC-2998): 115.02%
Growth Percent PC-3 (PC-3): 38.44%
Growth Percent TK-10 (TK-10): 129.90%
Growth Percent OVCAR-3 (OVCAR-3): 25.27%
Growth Percent CCRF-CEM (CCRF-CEM): 0.65%
Growth Percent SK-MEL-5 (SK-MEL-5): 22.53%
Growth Percent SNB-19 (SNB-19): 94.26%
Growth Percent SNB-75 (SNB-75): 39.58%
Growth Percent NCI-H322M (NCI-H322M): 55.30%
Growth Percent SK-OV-3 (SK-OV-3): 80.29%
Growth Percent LOX IMVI (LOX IMVI): 7.49%
Growth Percent A498 [2]: 88.61%
Growth Percent UACC-257 (UACC-257): 58.86%
Growth Percent RPMI-8226 (PRMI-8226 cell line): 43.23%
Growth Percent BT-549 (BT-549): 96.19%
Growth Percent 786-0 (786-O): 92.60%
Growth Percent SF-268 (SF-268): 56.01%
Growth Percent UACC-62 (UACC-62): 43.08%
Growth Percent MDA-MB-435 (MDA, -MB-435): −48.29%
Growth Percent SF-295 (SF-295): 91.56%
Growth Percent NCI-H460 (NCI-H460): 98.44%
Growth Percent HL-60(TB) (HL-60, TB): 70.32%
Growth Percent SR (SR): 1.25%
Growth Percent A549/ATCC (A549/ATCC): 101.64%
Growth Percent NCI/ADR-RES (NCl/ADR-RES): 62.34%
Growth Percent OVCAR-8 (OVCAR-8): 6.01%
Growth Percent HCT-15 (HCT-15): 54.72%
Growth Percent COLO 205 (COLO 205): 102.93%
Growth Percent MALME-3M (MALME-3M): 80.81%
Growth Percent MDA-MB-231/ATCC (MDA-MB-231/ATCC): −13.36%
Growth Percent IGROV1 (IGROV1): 43.88%
Growth Percent HOP-92 (HOP-92): 83.65%
Growth Percent SF-539 (SF-539): 68.26%
Growth Percent SN12C (SN12C): 66.11%
Growth Percent SK-MEL-28 (SK-MEL-28): 95.00%
Growth Percent CAKI-1 (CAKI-1): 73.77%
Growth Percent U251 (U251): 30.51%
Growth Percent MDA-MB-468 (MDA-MB-468): −85.29%
Growth Percent HCT-116 (HCT-116): 53.06%
Growth Percent KM12 (KM12): 103.02%
